From ChEMBL document CHEMBL4765420, “Design, synthesis and biological evaluation of novel HDAC inhibitors with improved pharmacokinetic profile in breast cancer” (Eur J Med Chem, 2020)
Active and inactive are the calls of the source. No cut-off for these calls is given here.

Key:
MDA-MB-231 [1] = assay: Antiproliferative activity against human MDA-MB-231 cells measured after 24 hrs by MTT assay; type: functional, cell-based; details: MDA-MB-231, 24 h
[2] = target: T1, Protein deacetylase HDAC6 (Homo sapiens, UniProt Q9UBN7); assay: Inhibition of recombinant human His-tagged HDAC6 expressed in baculovirus infected insect cells using Ac-Leu-Gly-Lys(Ac)-AMC as substrate measured after 30 mins by fluorescence assay
T1 sequence (Q9UBN7 whole entry): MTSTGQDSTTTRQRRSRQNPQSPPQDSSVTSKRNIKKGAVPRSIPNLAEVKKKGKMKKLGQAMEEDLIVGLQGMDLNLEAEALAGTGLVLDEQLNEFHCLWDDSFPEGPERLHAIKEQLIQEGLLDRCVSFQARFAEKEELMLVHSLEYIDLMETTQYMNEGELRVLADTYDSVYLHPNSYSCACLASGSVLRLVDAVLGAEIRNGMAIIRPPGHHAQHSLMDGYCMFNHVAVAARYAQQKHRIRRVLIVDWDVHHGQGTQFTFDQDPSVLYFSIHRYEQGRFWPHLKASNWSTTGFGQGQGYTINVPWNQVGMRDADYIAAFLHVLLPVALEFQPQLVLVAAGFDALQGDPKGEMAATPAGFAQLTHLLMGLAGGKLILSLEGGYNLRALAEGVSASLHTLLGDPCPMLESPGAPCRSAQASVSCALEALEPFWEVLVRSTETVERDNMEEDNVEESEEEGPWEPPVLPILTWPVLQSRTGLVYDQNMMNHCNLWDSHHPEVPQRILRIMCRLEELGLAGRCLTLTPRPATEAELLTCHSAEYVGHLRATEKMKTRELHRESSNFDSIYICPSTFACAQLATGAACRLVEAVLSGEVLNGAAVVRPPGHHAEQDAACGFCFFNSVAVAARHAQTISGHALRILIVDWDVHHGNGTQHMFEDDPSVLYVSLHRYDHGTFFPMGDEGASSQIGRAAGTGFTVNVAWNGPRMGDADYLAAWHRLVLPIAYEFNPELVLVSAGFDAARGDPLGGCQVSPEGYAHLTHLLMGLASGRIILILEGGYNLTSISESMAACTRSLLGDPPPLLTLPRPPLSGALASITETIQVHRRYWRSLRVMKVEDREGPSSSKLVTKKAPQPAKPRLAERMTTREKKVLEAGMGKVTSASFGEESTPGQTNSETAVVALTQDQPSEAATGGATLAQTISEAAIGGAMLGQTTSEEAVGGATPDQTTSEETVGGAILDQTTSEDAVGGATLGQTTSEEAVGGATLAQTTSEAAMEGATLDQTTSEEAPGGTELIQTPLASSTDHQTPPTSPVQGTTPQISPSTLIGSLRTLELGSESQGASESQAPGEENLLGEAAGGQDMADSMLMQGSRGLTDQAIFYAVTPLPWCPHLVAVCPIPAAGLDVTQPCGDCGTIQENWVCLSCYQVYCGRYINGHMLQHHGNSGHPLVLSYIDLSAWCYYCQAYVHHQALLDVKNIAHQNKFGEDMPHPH

MDA-MB-231 [3] = assay: Antimetastatic activity against CM-Dil labeled human MDA-MB-231 cells xenografted in Zebrafish AB assessed as reduction in tail metastasis at 2.5 ug/ml measured after 5 days by fluorescence microscopic analysis; type: functional, cell-based; details: dose 2.5 µg/ml, time 5.0 day
[4] = AUC (0 to infinity) in Beagle dog at 20 mg/kg, po by LC-MS/MS analysis; type: ADME, organism-based, Canis lupus familiaris; parameters: route oral, time infinity, dose 20 mg/kg; details: in vivo
[5] = Cmax in Beagle dog at 20 mg/kg, po by LC-MS/MS analysis; type: ADME, organism-based, Canis lupus familiaris; parameters: route oral, dose 20 mg/kg; details: in vivo
[6] = Tmax in Beagle dog at 20 mg/kg, po by LC-MS/MS analysis; type: ADME, organism-based, Canis lupus familiaris; details: in vivo
[7] = AUC (0 to t) in Beagle dog at 20 mg/kg, po by LC-MS/MS analysis; type: ADME, organism-based, Canis lupus familiaris; parameters: dose 20 mg/kg; details: in vivo
[8] = Half life in Beagle dog at 20 mg/kg, po by LC-MS/MS analysis; type: ADME, organism-based, Canis lupus familiaris; details: in vivo

SMILES	IC50 (MDA-MB-231 [1]) [µM]	IC50 [2] [µM]	further results
COc1cc(OC)c2c(N3CCOC[C@H]3C)nc(-c3cc(C)c(OCCCCCC(=O)NO)c(C)c3)nc2c1	5.97	0.102	
COc1cc(OC)c2c(N3CCOC[C@H]3C)nc(-c3cc(C)c(OCCCC(=O)NO)c(C)c3)nc2c1	11.3	0.33	
COc1cc(OC)c2c(N3CCSCC3)nc(-c3cc(C)c(OCCCC(=O)NO)c(C)c3)nc2c1	15.7	0.42	
COc1cc(OC)c2c(N3CCOCC3)nc(-c3cc(C)c(OCCCC(=O)NO)c(C)c3)nc2c1	11.4	0.35	
O=C(CCCCCCC(=O)Nc1ccccc1)NO [VORINOSTAT]			Activity (MDA-MB-231 [3]): Active; AUC [4]: 968.32 ng·h/mL; Cmax [5]: 118.93 ng/mL; Tmax [6]: 9 min; AUC(0-t) [7]: 965 ng·h/mL; t1/2 [8]: 19.2 min
COc1cc(OC)c2c(N3CCSCC3)nc(-c3cc(C)c(OCCCCC(=O)NO)c(C)c3)nc2c1	9.83	0.29	
COc1cc(OC)c2c(N3CCOC[C@H]3C)nc(-c3cc(C)c(OCCCCC(=O)NO)c(C)c3)nc2c1	8.35	0.22	
COc1cc(OC)c2c(N3CCSCC3)nc(-c3cc(C)c(OCCCCCC(=O)NO)c(C)c3)nc2c1	8.89	0.129	
COc1cc(OC)c2c(N3CCOC[C@@H]3C)nc(-c3cc(C)c(OCCCCCC(=O)NO)c(C)c3)nc2c1	3.79	0.0985	
COc1cc(OC)c2c(N3CCOC[C@H]3C)nc(-c3cc(C)c(OCC(=O)NO)c(C)c3)nc2c1	31.3	> 20	
COc1cc(OC)c2c(N3CCOC[C@@H]3C)nc(-c3cc(C)c(OCCCC(=O)NO)c(C)c3)nc2c1	10.8	0.36	
